Measured values taken from a compilation of properties of binary mixtures (doi:10.1039/c7cp05886a).

Test: xn = mol fraction of the nth substance listed
Settings: 298.15 K, 100 kPa

CCCCCCCC[N+]1(C)CCCC1.O=S(=O)([N-]S(=O)(=O)C(F)(F)F)C(F)(F)F + CCCCOC(C)=O
Settings | electrical conductivity [S/m] | viscosity [mPa·s]
x2 = 0 | 0.082 | 138.2
x2 = 0.481 | 0.256 | –
x2 = 0.4969 | – | 17.37
x2 = 0.6954 | – | 7.1
x2 = 0.7372 | 0.361 | –
x2 = 0.7499 | – | 5.07
x2 = 0.8031 | – | 3.42
x2 = 0.8484 | – | 2.5
x2 = 0.8928 | 0.242 | –
x2 = 0.9016 | – | 1.732
x2 = 0.9431 | – | 1.202
x2 = 0.9456 | 0.131 | –

CCCCCCCC[n+]1ccccc1.O=S(=O)([N-]S(=O)(=O)C(F)(F)F)C(F)(F)F + CCCCOC(C)=O
Settings | electrical conductivity [S/m] | viscosity [mPa·s]
x2 = 0 | 0.097 | 104.1
x2 = 0.2414 | 0.166 | –
x2 = 0.2556 | – | 49.6
x2 = 0.481 | 0.271 | –
x2 = 0.501 | – | 18.43
x2 = 0.6984 | – | 6.82
x2 = 0.7372 | 0.384 | –
x2 = 0.7522 | – | 4.87
x2 = 0.7923 | 0.377 | –
x2 = 0.7996 | – | 3.57
x2 = 0.8427 | 0.333 | –
x2 = 0.8487 | – | 2.47
x2 = 0.8928 | 0.258 | –
x2 = 0.8996 | – | 1.732
x2 = 0.9456 | 0.124 | –
x2 = 0.9493 | – | 1.227

CCCCCCCCn1cc[n+](C)c1.O=S(=O)([N-]S(=O)(=O)C(F)(F)F)C(F)(F)F + CCCCOC(C)=O
Settings | electrical conductivity [S/m] | viscosity [mPa·s]
x2 = 0.2622 | – | 44.2
x2 = 0.481 | 0.307 | –
x2 = 0.5001 | – | 17.1
x2 = 0.6824 | 0.407 | –
x2 = 0.7372 | 0.414 | –
x2 = 0.7503 | – | 4.99
x2 = 0.7923 | 0.406 | –
x2 = 0.797 | – | 3.47
x2 = 0.8503 | – | 2.53
x2 = 0.8928 | 0.279 | –
x2 = 0.8976 | – | 1.73
x2 = 0.9305 | – | 1.308
x2 = 0.9456 | 0.19 | –

CCCCOC(C)=O + CCCC[n+]1ccn(C)c1.O=S(=O)([N-]S(=O)(=O)C(F)(F)F)C(F)(F)F
Settings | electrical conductivity [S/m] | viscosity [mPa·s]
x1 = 0.2414 | 0.529 | 26
x1 = 0.481 | 0.67 | 11.88
x1 = 0.6824 | 0.725 | 4.9
x1 = 0.7372 | 0.704 | 3.42
x1 = 0.7923 | 0.654 | 2.65
x1 = 0.8427 | 0.535 | 2.043
